Test results: US20060229358A1, “Pharmaceutical composition containing flavonoids” (Taipei Medical University, priority 2005, published 2006)

test system: PDE1; experiment: Inhibition of cyclic nucleotide PDE activity (Assay I), PDE1; assay type: biochemical, guinea pig; settings: mean ± S.E.M. (n); read-out: IC50 on phosphodiesterase isozyme 1
Procedure: Under a protocol approved by the Animal Care and Use Committee of Taipei Medical University, five male guinea pigs (Hartley), weighing 500-600 g, were sacrificed. The lungs (15 g) or hearts (4 g) taken therefrom were chopped into small pieces and homogenized with a glass/teflon homogenizer (Glas-Col, Terre Haute, Ind., USA) in 10 volumes of cold medium (pH 6.5) containing 20 mM Bis-Tris, 2 mM benzamidine, 2 mM EDTA, 50 mM sodium chloride, 0.1 mM phenylmethanesulfonyl fluoride (PMSF), and 1 mM dithiothreitol. At 4° C., the homogenate was centrifuged at 170 g for 15 min, and the supernatant thereof was then re-centrifuged at 40,000 g for 30 min. The final supernatant fraction was filtered through the 0.22 μm filter and applied to a Q-sepharose fast flow column (2.2×28 cm), which is pre-washed and pre-equilibrated in homogenization buffer. The column was washed with two bed volumes of homogenate buffer to remove unbound material, where the resin beads therein will bind with proteins, such as PDE proteins. Proteins bound to the Q-sepharose beads were eluted with various concentrations (0.23, 0.34, 0.44, 0.69, and 1.00 M) of NaCl dissolved in homogenate buffer (for each concentration, 40-50 mL elution buffer were applied) at a flow rate of 30 ml/h. Fractions (3 ml each) were collected, and ethylene glycol (EG) was added thereto until a final concentration of 30% (v/v). And then the samples were frozen at −70° C. Under these conditions, the enzyme activity was stable for at least 3 months.
In order to eliminate possible contamination of PDE5 by PDE1, the above-collected fractions with enzyme activity was further purified on a calmodulin-agarose column. The column (1.6 cm×4 cm) was pre-equilibrated by a buffer A, which contains 20 mM Bis-tris, 1 mM dithiothreitol, 2 mM benzamidine, 50 mM NaCl, 3 mMMgCl2, 0.1 mM CaCl2, and 0.1 mM PMSF, pH 6.5. The sample (the mixture of PDE5 and PDE1), being purified by the above-mentioned column, with the CaCl2 concentration thereof adjusted to at least 2 mM previously, was loaded and allowed to be absorbed on the gel for 30 min. Then, the PDE isozymes were eluted by stepwise elution using 20 ml of buffer A with 1 M NaCl followed by 20 ml of buffer A with 1 M NaCl and with 1 mM EGTA. PDE5 was collected first followed by PDE1.
The activities of PDE1-5 in the homogenate were measured with a two-step procedure according to the method of Thompson and Appleman, using cAMP with [^3H]-cAMP or cGMP with [^3 H]-cGMP as substrates. The PDE enzyme prepared (25 μl) with 10 μl inhibitor or the solvents therefor was incubated for 30 min at 37° C. in a total assay buffer, where the final volume of the assay is amounted to 100 μl. In accordance with the features of the PDE isozymes, the assay buffer contains 50 mM Tris/HCl (pH 7.4), 3 mM MgCl2, 1 mM dithiothreitol, and 0.05% BSA, and optionally contains 1 uM cAMP with 0.2 μCi [^3H]-cAMP as a substrate alone or in the presence of 0.1 unit calmodulin with 10 μM CaCl2, or 5 μM cGMP, and 1 μM cGMP with 0.2 μCi [^3H]-cGMP as another substrate alone or in the presence of 0.1 unit calmodulin with 10 μM CaCl2. In assay of enzyme inhibition, the assay mixture contained with the inhibitors at various concentrations of flavonoids in the Table 1 or the selective PDE1-5 inhibitors as reference drugs. For example, the selective PDE1-5 inhibitors are vinpocetin [30], EHNA [31], milrinone, Ro 20-1724 [33], and zaprinast, respectively.
The PDE enzyme and the inhibitors (or their solvent) therefor were mixed and incubated on ice for 30 min previously, and then mixed with the assay buffer. The assay was initiated by transferring the mixture to a water bath at 37° C. Following the other 30 min incubation, the reaction was stopped by transferring the reaction vessel to a bath of boiling water for 3 min. After cooling on ice, 20 μl of the 1 mg/ml of Crotalus atrox venom was added to the reaction mixture, and the mixture was incubated at 37° C. for 10 min. […]

| Structure (SMILES) | IC50 [µM] |
| --- | --- |
| O=c1c(O)c(-c2cc(O)c(O)c(O)c2)oc2cc(O)cc(O)c12 [Myricetin] | 24.9 ± 3.6 |
| O=c1c(O)c(-c2ccc(O)c(O)c2)oc2cc(O)cc(O)c12 [Quercetin] | 27.8 ± 5.7 |
| COc1ccc(C2CC(=O)c3c(O)cc(O)cc3O2)cc1O (stereo not drawn) [Hesperetin] | > 100 |
| COc1ccc(-c2coc3cc(O)cc(O)c3c2=O)cc1 [Biochanin A] | 29.1 ± 0.3 |
| O=c1cc(-c2ccc(O)c(O)c2)oc2cc(O[C@@H]3O[C@H](CO)[C@@H](O)[C@H](O)[C@H]3O)cc(O)c12 [Luteolin-7-glucoside] | > 100 |
| O=c1cc(-c2ccc(O)cc2)oc2cc(O)cc(O)c12 [Apigenin] | 25.4 ± 3.7 |
| O=c1c(-c2ccc(O)cc2)coc2cc(O)ccc12 [Daidzein] | > 100 |
| O=c1c(-c2ccc(O)cc2)coc2cc(O)cc(O)c12 [Genistein] | 16.8 ± 2.3 |
| O=c1cc(-c2ccc(O)c(O)c2)oc2cc(O)cc(O)c12 [Luteolin] | 21.5 ± 2.9 |
| O=c1cc(-c2ccccc2)oc2cc(O)cc(O)c12 [Chrysin] | > 100 |
| O=C1CC(c2ccc(O)c(O)c2)Oc2cc(O)cc(O)c21 (stereo not drawn) [Eriodictyol] | > 100 |
| COc1cc(O)c2c(=O)c(-c3ccc(O)cc3)coc2c1 [Prunetin] | > 100 |
